Assay results published in PMC6271477, “Effects of Single Amino Acid Substitution on the Biophysical Properties and Biological Activities of an Amphipathic α-Helical Antibacterial Peptide Against Gram-Negative Bacteria” (Molecules, 2014).
In brackets after ≈: the same amount, converted by molar mass.

What was measured:
[1] = tested on: E. coli DH5α; assay: MIC by broth dilution; format: cell-based; conditions: MH broth, 5 × 10^5 CFU/mL, 24 h at 37 °C
Protocol: Minimal inhibitory concentrations (MIC) were determined using a broth dilution method. Briefly, bacteria were grown overnight at 37 °C in Mueller–Hinton (MH) Broth, diluted in the same medium and transferred into 96-well microtiter plates (90 μL/well). Peptides were serially diluted using 0.2% bovine serum albumin containing 0.01% acetic acid and added to the microtiter plates in a volume of 10 μL per well to give a final concentration of 5 × 10^5 CFU/mL. MICs were defined as the lowest peptide concentration that inhibited bacterial growth after incubation for 24 h at 37 °C.

[2] = Dansyl-polymyxin B displacement assay (LPS binding affinity); design: species or system E. coli; conditions: LPS 3 μg/mL in 5 mM HEPES pH 7.2, 25 °C, fluorescence; result in words, Figure 5
Protocol: As most of the outer membrane is LPS, the affinity of peptide analogs to LPS of E. coli was further detected by dansyl-polymyxin B displacement assay. As it is the polar face of the molecule that binds LPS, and all the peptides V16A, V16S, V16G and P have the same number of positively charged residues on the polar face, they would be expected to have similar effects on LPS affinity (Figure 5).
Dansyl-polymyxin B was synthesized, purified and quantified as reported. It was then dissolved in HEPES buffer (5 mM, pH 7.2) at the concentration of 100 μM and the final concentration of LPS is 3 μg/mL in the same buffer. Fluorescence measurements were run on a Shimadzu RF-5301 spectrofluorometer using a 3 mL quartz cuvette with an excitation wavelength of 350 nm and an emission wavelength of 420 nm at 25 °C. For displacement assay, 15 μL of peptide solution (10 mg/mL) was titrated into the cuvette containing 2 mL LPS and 0.25 mL dansyl-polymyxin B, and the decrease in the observed fluorescence (percent inhibition) was recorded.

[3] = tested on: human red blood cells; assay: Hemolytic activity; format: cell-based; conditions: peptide 1,000 μg/mL, 1% human erythrocytes in PBS, 37 °C for 4 h, absorbance at 540 nm, 100% = distilled water
Protocol: Peptide samples were serially diluted using phosphate-buffered saline (PBS) in 96-well plates (round-bottom) to give a volume of 60 μL of the sample solution in each well. Human erythrocytes that had been anticoagulated using EDTAK2 were collected by centrifugation (1,000 ×g) for 5 min, washed twice with PBS, then diluted to a concentration of 2% in PBS. The erythrocytes (60 μL of 2% solution) were added to each well to achieve a final concentration of 1% human erythrocytes per well, and the reactions were incubated at 37 °C for 4 h. The plates were then centrifuged for 10 min at 3000 rpm and the supernatant (80 μL) was transferred to a 96-well plate (flat-bottom). The release of hemoglobin was determined by measuring the absorbance of the supernatant at 540 nm. Peptide samples were diluted in a 2-fold series to determine the minimum concentration at which hemolysis occurred. Erythrocytes in PBS and distilled water were used as controls of 0% and 100% hemolysis, respectively. Hemolysis percentage was calculated by the absorbance of peptide at the concentration of 1,000 μg/mL and compared with the 100% hemolysis.

## Ac-KWKSFLKTFKSAKKTKLHTALKAISS-NH2 [Peptide V16K]
[1]
  MIC: 16 µg/mL
[2]
  Affinity to LPS (inhibition of dansyl-polymyxin B binding): more affinity than the Ser- or Gly-substituted peptides

## CC[C@H](C)[C@H](NC(=O)[C@H](C)NC(=O)[C@H](CCCCN)NC(=O)[C@H](CC(C)C)NC(=O)[C@H](C)NC(=O)[C@@H](NC(=O)[C@H](Cc1cnc[nH]1)NC(=O)[C@H](CC(C)C)NC(=O)[C@@H](NC(=O)[C@@H](NC(=O)[C@H](CCCCN)NC(=O)[C@H](CCCCN)NC(=O)[C@H](C)NC(=O)[C@H](CO)NC(=O)[C@H](CCCCN)NC(=O)[C@H](Cc1ccccc1)NC(=O)[C@@H](NC(=O)[C@H](CCCCN)NC(=O)[C@H](CC(C)C)NC(=O)[C@H](Cc1ccccc1)NC(=O)[C@H](CO)NC(=O)[C@H](CCCCN)NC(=O)[C@H](Cc1c[nH]c2ccccc12)NC(=O)[C@H](CCCCN)NC(C)=O)[C@@H](C)O)[C@@H](C)O)C(C)C)[C@@H](C)O)C(=O)N[C@@H](CO)C(=O)N[C@@H](CO)C(N)=O [P]
[3]
  Hemolysis Percentage: 28.3%
[1]
  MIC: 2 µg/mL (≈ 0.669 µM)
